From US20060159772A1, “Fungicidal compositions” (priority 2002, published 2006)
Where two headings read alike, the source gives them in different places.

How the values were obtained:
[1] = system: Plasmopara viticola; experiment: Greenhouse test against downy mildew, preventive application to vine leaves (Example 4); type: in vivo, Plasmopara viticola on vine plants, cv. Dolcetto; details: for pest or weed control at 0.2 ppm: 0.20 ppm
Experimental: Determination of the fungicidal efficacy against downy mildew (Plasmopara viticola) in preventive application to vine leaves in greenhouse.
Leaves of vine plants, cv. Dolcetto, grown up in pots in conditioned environment at 25° C. and 60% relative humidity, were sprayed on both sides with hydroacetonic solutions (20% of acetone by volume) of the compounds under testing, the potassium phosphite (K2HPO3+KH2PO3) aqueous solutions and the mixtures of both components.
Seven days after the treatments, the leaves of treated plants and untreated controls were sprayed on the lower surface with aqueous suspension of Plasmopara viticola conidia (200.000 conidia/ml); after beeing kept for 24 h at 21° C. in environment moist at saturation, the plants were transfered to other conditioned environment at 70% relative humidity and 21° C. for 7 days.
After this period the degree of infection was evaluated and the activity of the compounds tested was expressed as % of disease control in comparison to the untreated controls: 100=healty plant; 0=completely infected plant.
In tables 6-20 are reported the results obtained for the compounds tested alone and in mixture with potassium phosphite at the indicated dosages. When the % disease control value found is higher than the value expected applying the Limpel formula (see Example 3), a synergic effect is verified.

[2] = system: Phytophthora infestans; type: in vivo, Phytophthora infestans on potato plants, Miura variety; details: 1400 g/hl active principle; average of 3 tests on potato plants in Great Britain, 2002

COCC(=O)N(c1c(C)cccc1C)C(C)C(=O)OC (centres unmarked) [metalaxyl, methyl N-(2-methoxyacetyl)-N-2,6-xylyl-RS-alaninate]
pest or weed control at 0.2 ppm ([1]; Plasmopara viticola, topical, 168 h, Table 7, read-out: % Disease Control: found): 45%

COc1ccc(C(=CC(=O)N2CCOCC2)c2ccc(Cl)cc2)cc1OC [dimethomorph, (E,Z)-4-[3-(4-chlorophenyl)-3-(3,4-dimethoxyphenyl)acryloyl]-morpholine]
pest or weed control at 0.45 ppm ([1]; Plasmopara viticola, topical, 168 h, 0.45 ppm, Table 15, read-out: % Disease Control: found): 73%

COCC(=O)N(c1c(C)cccc1C)[C@H](C)C(=O)OC [mefenoxam, methyl N-(2-methoxyacetyl)-N-2,6-xylyl-R-alaninate]
pest or weed control at 0.1 ppm ([1]; Plasmopara viticola, topical, 168 h, 0.10 ppm, Table 8, read-out: % Disease Control: found): 48%

potassium phosphite (K2HPO3+KH2PO3)
% Disease Control: found ([1]; 60 ppm, inoculation 7 days after treatment): 35% | % disease control leaves [2]: 23%

CC1(c2ccc(Oc3ccccc3)cc2)OC(=O)N(Nc2ccccc2)C1=O (centres unmarked) [famoxadone, 5-methyl-5-(4-phenoxyphenyl)-3-(phenylamino)oxazolidin-2,4-dione]
pest or weed control at 0.45 ppm ([1]; Plasmopara viticola, topical, 168 h, 0.45 ppm, Table 12, read-out: % Disease Control: found): 56%

CO/C=C(/C(=O)OC)c1ccccc1Oc1cc(Oc2ccccc2C#N)ncn1 [azoxystrobin]
% Disease Control: found ([1]; 0.11 ppm, Table 11): 69%

O=[N+]([O-])c1cc(C(F)(F)F)c(Cl)c([N+](=O)[O-])c1Nc1ncc(C(F)(F)F)cc1Cl [fluazinam, 3-chloro-N-(3-chloro-5-trifluoromethyl-2-pyridyl)-α,α,α-trifluoro-2,6-dinitro-p-toluidine]
pest or weed control at 20 ppm ([1]; Plasmopara viticola, topical, 168 h, 20 ppm, Table 20, read-out: % Disease Control: found): 48%

CCNC(=O)NC(=O)C(C#N)=NOC [cymoxanil, 1-(2-cyano-2-methoxyimino-acetyl)-3-ethyl urea]
pest or weed control at 30 ppm ([1]; Plasmopara viticola, topical, 168 h, 30 ppm, Table 6, read-out: % Disease Control: found): 59%

CC(C)OC(=O)N[C@H](C(=O)N[C@H](C)c1nc2ccc(F)cc2s1)C(C)C [benthiavalicarb]
pest or weed control at 0.25 ppm ([1]; Plasmopara viticola, topical, 168 h, 0.25 ppm, Table 10, read-out: % Disease Control: found): 47%

Cc1ccc(-c2c(Cl)nc(C#N)n2S(=O)(=O)N(C)C)cc1 [cyazofamide, 2-cyano-4-chloro-′5-(4-methylphenyl)-1-(N,N-dimethylaminosulfamoyl)-imidazole]
% Disease Control: found ([1]; 15 ppm, Table 14): 68%

N#Cc1c(Cl)c(Cl)c(Cl)c(C#N)c1Cl [chlorothalonil, 1,3-dicyano-2,4,5,6-tetrachlorobenzene]
pest or weed control at 7.5 ppm ([1]; Plasmopara viticola, topical, 168 h, 7.5 ppm, Table 16, read-out: % Disease Control: found): 46%

COCC(=O)N(c1c(C)cccc1C)N1CCOC1=O [oxadixyl, 2-methoxy-N-(2-oxo-1,3-oxazolidin-3-yl)aceto-2′,6′-xylidide]
pest or weed control at 0.2 ppm ([1]; Plasmopara viticola, topical, 168 h, Table 18, read-out: % Disease Control: found): 49%

Cc1ccc(C(C)NC(=O)C(NC(=O)OC(C)C)C(C)C)cc1 (centres unmarked) [iprovalicarb, O-(1-methyl-ethyl)-N-[2-methyl-1-[[[1-(4-methylphenyl)-ethyl]amino]carbonyl]propyl]carbamate]
% Disease Control: found ([1]; 0.45 ppm, Table 9): 50%
